A short description of data set [1]: Plasma pharmacokinetics of dabrafenib, its metabolites and trametinib. It counts as in vivo, Japanese patients. Particulars: for plasma AUC at repeat dosing (day 21) compared with single dose (day 1): AUC0-12 h for dabrafenib, AUC0-24 h for trametinib; for time by which plasma (trough) concentrations seemed to reach steady state: repeat dosing of 150 mg dabrafenib b.i.d. and 2 mg trametinib q.d.

The nature of a further data set: Safety and tolerability. It counts as in vivo, Japanese patients.

Each structure is given as a SMILES string.

For `CC(C)(C)c1nc(-c2cccc(NS(=O)(=O)c3c(F)cccc3F)c2F)c(-c2ccnc(N)n2)s1` [Dabrafenib, dabrafenib], in data set [1], the “plasma AUC at repeat dosing (day 21) compared with single dose (day 1)” value is listed as “lower” and the “time by which plasma (trough) concentrations seemed to reach steady state” value (“time by which plasma” below) was at most 3 week. Also, the “adverse event leading to discontinuation” value in “Safety and tolerability” (patient 1, phase 1) was “grade 3 increased blood alkaline phosphatase”. The “adverse event leading to discontinuation” value in “Safety and tolerability” (patient 11, phase 2) is given as “grade 3 uveitis”.

Turning to `CC(C)c1nc(-c2cccc(NS(=O)(=O)c3c(F)cccc3F)c2F)c(-c2ccnc(N)n2)s1` [GSK2167542], the “time by which plasma” value in data set [1] is given as at most 3 week.

Consider `CC(C)(CO)c1nc(-c2cccc(NS(=O)(=O)c3c(F)cccc3F)c2F)c(-c2ccnc(N)n2)s1` [GSK2285403], for which the “time by which plasma” value in data set [1] is at most 3 week.

For the molecule `CC(C)(C(=O)O)c1nc(-c2cccc(NS(=O)(=O)c3c(F)cccc3F)c2F)c(-c2ccnc(N)n2)s1` [GSK2298683], the “time by which plasma” value in data set [1] is reported as at most 3 week.

As to `CC(=O)Nc1cccc(-n2c(=O)n(C3CC3)c(=O)c3c(Nc4ccc(I)cc4F)n(C)c(=O)c(C)c32)c1` [Trametinib, trametinib], in data set [1], the “plasma AUC at repeat dosing (day 21) compared with single dose (day 1)” value is reported as “higher” and the “time by which plasma” value is at most 3 week. In data set [1] (trametinib 2 mg q.d.), the “half-life relative to the dose interval (24 h)” value is “approximately 3.5 times the dose interval”. Moreover, the “adverse event leading to discontinuation” value in the data set “Safety and tolerability” (patient 11, phase 2) is listed as “grade 3 uveitis”.

For the origin of these results see publication PMC5947742 (The Journal of Dermatology, 2018).
